Data set [1] in a line: Stability testing, HPLC evaluation of stored samples. In kind it is physicochemical. Conditions: 25° C. and 60% relative humidity. Here is the method: Samples of MB-102 were prepared and stored at 25° C. and 60% relative humidity for 24 months. HPLC evaluation of each sample was performed at various time points to assess the stability of the samples.
The nature of data set [2]: Clinical pharmacokinetic study of MB-102 given intravenously: plasma and urine collection. Particulars: for half-life: plasma. It is filed as in vivo, human. The protocol: In a clinical study, 60 human patients were administered MB-102 ((2R,2′R)-2,2′-((3,6-diaminopyrazine-2,5-dicarbonyl)bis(azanediyl))bis(3-hydroxypropanoic acid)) prepared in Example 12) intravenously. Blood and urine were collected in addition to the methods and techniques disclosed herein. Standard pharmacokinetic data was collected and comparison was made between the methods and techniques disclosed herein to Omnipaque® (iohexol), a known contrast agent used for GFR determination.
Shown in FIGS. 3A to 3D are data collected from the 60 human patients tested with MB-102. Plasma pharmacokinetic data was collected and analyzed using methods known in the art and compared to the data measured using the methods and techniques disclosed herein.
FIGS. 3A to 3D illustrate a two compartment pharmacokinetic model for the elimination of MB-102. The model is consistent for patients regardless of their GFR values. FIG. 3A is for patients having normal kidney function having a measured GFR (mGFR) of 120 mL/min. FIG. 3B is for patients having a mGFR of 81 mL/min. FIG. 3C is for patients having a mGFR of 28 mL/min. FIG. 3D is for patients having a mGFR of 25 mL/min. The first compartment in the two compartment model is the vascular to tissue equilibrium while the second compartment illustrates renal excretion only. On average, the time for equilibration is about one hour, and is subject dependent.
As part of the clinical 1 study for MB-102, urine was collected from patients for 12 hours to determine the amount recovered and degree of secondary metabolism. […] For patients having normal, stage 1 and stage 2 renal function, 12 hour collection time was sufficient for greater than 99% recovery of MB-102. In view of the pharmacokinetic data and the plasma half-life determination, less than complete collection is readily understood for patients having more serious renal function impairment.
Shown in FIG. 6 is the plasma concentration half-life of MB-102 for patients having either normal kidney function, stage 1 renal impairment, stage 2 renal impairment, stage 3 renal impairment, or stage 4 renal impairment.

The mark [3] stands for this setting: patients having a mGFR value below 60, 12 hours.

Molecules are shown by their SMILES. Read-outs that look alike come from different tables or passages of the source.

For the compound `Nc1nc(C(=O)N[C@H](CO)C(=O)O)c(N)nc1C(=O)N[C@H](CO)C(=O)O` [MB-102], the “Purity (HPLC)” value in data set [1] (0 months) was more than 99%; in data set [1] (6 months), more than 99%; in data set [1] (12 months), 98.9%; in data set [1] (18 months), 98.3%; in data set [1] (24 months) it was 97.8%. The “time for equilibration (vascular to tissue equilibrium)” value in data set [2] (human patients, intravenous, on average, subject dependent) is “about one”. Moreover, the half-life (as a rule, how long it takes for the measured level to halve) was 2.5 h in data set [2] (human, intravenous, stage 2 and 3 groups (so in the source), read-out: average plasma half-life (converted)); 4 h in data set [2] (human, intravenous, stage 3 renal impairment, read-out: plasma half-life (converted)); 8 h in data set [2] (human, intravenous, stage 4 renal impairment, read-out: plasma half-life (converted)). For the same compound, the dose excreted in data set [2] (human, urine, intravenous, patients having normal, stage 1 and stage 2 renal function, 12 hour collection time, read-out: recovery from urine) was more than 99%. Besides, the average plasma half-life result in data set [2] (normal renal function group) is “two”. For the same compound, in data set [2] (setting [3]), the “degree of secondary metabolism (urine)” value is recorded as “unmetabolized”. The recovery from urine entry in data set [2] (setting [3]) is recorded as “a lower percentage was recovered”. Also, in data set [2] (patients having an eGFR greater than 60, after 12 hours), the “recovered unmetabolized from urine” value is given as “greater than 99%”.

The values are drawn from patent US11590244B2, “Methods for renal function determination” (MediBeacon Inc., priority 2017, dated 2023).
